Measured values published in patent publication US5547972A, “Therapeutic agents useful for treating inflammatory diseases” (The Boots Company PLC, priority 1991, dated 1996).
Counter-ions that a name gives are not always drawn.

system: Zymosan Stimulated Macrophaqes; assay: Test A: Inhibition of Arachidonic Acid Release from Zymosan Stimulated Macrophages; assay type: cell-based, mouse (female MF1); conditions: Mus musculus, Macrophage, 5 h, inhibition of arachidonic acid release; six concentrations (100, 50, 20, 10, 5 and 1 μM); 5 h with zymosan; read-out: Test A IC50
Description: Inhibition of Arachidonic Acid Release from Zymosan Stimulated Macrophaqes
Female MF1 mice (weighing 20 to 25 g) were killed using a rising concentration of CO2. The mice were laid on their backs and the abdomens wiped with 70% alcohol. The skin was pulled back, exposing the peritoneal wall. Medium A (5 ml) (see below) was injected into the peritoneal cavity of each mouse followed by approximately 1 ml of air using a 20 ml syringe and a 21 G×40 mm needle in order to form a suspension of macrophage cells. The medium and cells were then removed using a 19 G×40 mm needle. The resulting suspension was returned to a sterile beaker kept on ice. The extracts from all the mice were pooled and this pooled cell suspension was counted using a Coulter counter and adjusted to a final cell count of 1-1.3×10^6 cells/ml prior to labelling with [^3 H]-arachidonic acid. Typically five mice provided sufficient cells for each multiwell plate.
Sufficient [^3 H]-arachidonic acid in ethanol to give a final concentration of 1.6 μCi/ml (equivalent to 40 μCi/plate) was blown to dryness under nitrogen. The arachidonic acid was then resuspended in 1 or 2 ml of the cell suspension which was then mixed with the remainder of the cell suspension in a centrifuge bottle. The labelled cell suspension was then plated out into sterile plastic 96 flat-bottomed well plates (250 μl per well) and incubated overnight at 37° C. in a moist atmosphere of 5% CO2, 95% air.
The following day, non-adherent cells were removed by washing 3 times with sterile phosphate buffered saline (PBS). The adherent peritoneal macrophages were then cultured for a further 24 hours in the presence or absence of drugs, in medium B (see below) at 37° in a 5% CO2 atmosphere in order to measure the effects of drugs on the spontaneous release of arachidonic acid in the absence of stimulus. After this incubation, supernatants were removed to give media 1 and stored in sealed multi-well plates at 4° C. prior to scintillation counting. Drugs which potentiated spontaneous release of arachidonic acid (125% of controls) were deemed to be toxic at the concentration at which this phenomenon occurred. The supernatants were replaced by fresh medium C containing fresh drug and a stimulus. Three drugs were tested at six concentrations (100, 50, 20, 10, 5 and 1 μM) in replicates of four on each plate. The other wells contained controls consisting of a positive control (e.g. dexamethasone), medium (B) only and medium C only.
Incubation was then continued for a further 5 hours, whereupon the supernatants were collected to give media 2 and the adherent cells washed with PBS. The cells were then lysed with 100 μl of 0.1% TRITON® X100 in a 0.1% solution of bovine serum albumin in 0.9% saline and mechanically disrupted to give cell lysates. These supernatants (media 2) and cell lysates (Cells) were also stored in sealed multi-well plates at 4° C. prior to scintillation counting. 200 μl aliquots of media, or 100 μl aliquots of cells were counted using 2 ml of OPTIPHASE "HIGH SAFE" (Trademark of LKB) as scintillant.
The percentage of arachidonic acid released was calculated using the mean values for each group of 4 wells in the following equation. [formula] cpm=courts per minute
The value for the arachidonic acid release in the absence of stimulus (spontaneous, cpm of media 2) from cells which had been exposed to neither stimulus nor drug was subtracted from all equivalent values (cpm media 2, stimulated with or without drug) to give the net stimulated release. The percentage inhibition of arachidonic acid release caused by a drug may then be calculated using the following equation. [formula]
Compounds of formula I were tested at six concentrations (100, 50, 20, 10, 5 and 1 μM) and IC50 values calculated. Compounds with IC50 values<100 μM are considered to be active. Advantageous compounds have an IC50 value <50 μM.
Medium A (for peritoneal lavage) […]

In order of falling IC50:
1. CC(NCCCn1ccnc1)c1ccc(F)cc1 (stereo not drawn) [Example 4, N-[1-(4-Fluorophenyl)ethyl]-3-(imidazol-1-yl)propylamine]  95 µM
2. CC(NCCCn1ccnc1)c1ccc(N(C)C)cc1 (stereo not drawn) [Example 6, N-[1-(4-Dimethylaminophenyl)ethyl]-3-(imidazol-1-yl)-propylamine]  92 µM
3. COc1cc(Cl)ccc1C(C)NCCCn1ccnc1 (stereo not drawn) [Example 17, N-[1-(4-Chloro-2-methoxyphenyl)ethyl]-3-(imidazol-1-yl)propylamine]  90 µM
4. Brc1ccc(CNCCCn2ccnc2)cc1 [Example 36, N-(4-Bromobenzyl)-3-(imidazol-1-yl)propylamine]  90 µM
5. Clc1ccc(CNCCCCn2ccnc2)cc1 [Example 46, N-(4-Chlorobenzyl)-4-(imidazol-1-yl)butylamine dihydrochloride]  86 µM
6. CC(C)(NCCCn1cnc(CO)c1)c1ccc(Cl)cc1 [Example 79, 1-{3-[1-(4-Chlorophenyl)-1-methylethylamino]propyl}imidazol-4-yl-methanol]  85 µM
7. FC(F)(F)Oc1ccc(CNCCCn2ccnc2)cc1 [Example 38, 3-(Imidazol-1-yl)-N-(4-trifluoromethoxybenzyl)propylamine dihydrochloride]  80 µM
8. CCC(CC)(NCCCn1cnc(CO)c1)c1ccccc1 [Example 86, 1-[3-(1-ethyl-1-phenylpropylamino)propyl]imidazol-4-yl-methanol]  78 µM
9. CN(CCCn1ccnc1)C(C)(C)c1ccc(Cl)cc1 [Example 96, N-[1-(4-chlorophenyl)-1-methylethyl]-3-(imidazol-1-yl)-N-methylpropylamine]  75 µM
10. FC(F)(F)c1ccc(CNCCCn2ccnc2)cc1 [Example 37, 3-(Imidazol-1-yl)-N-(4-trifluoromethylbenzyl)propylamine dihydrochloride]  75 µM
11. CC(NCCCn1ccnc1)c1cc(Cl)ccc1Cl (stereo not drawn) [Example 15, N-[1-(2,5-Dichlorophenyl)ethyl]-3-(imidazol-1-yl)propylamine]  72 µM
12. CC(C)(CNCc1ccc(Cl)cc1)Cn1ccnc1 [Example 61, N-(4-chlorobenzyl)-3-(imidazol-1-yl)-2,2-dimethylpropylamine]  70 µM
13. CCOC(=O)c1ccc(C(C)NCCCn2ccnc2)cc1 (stereo not drawn) [Example 20, Ethyl 4-{1-[3-(imidazol-1-yl)propylamino]ethyl}benzoate]  70 µM
14. CC(C)(NCCCn1cnc([N+](=O)[O-])c1)c1ccc(Cl)cc1 [Example 74, N-[1-(4-Chlorophenyl)-1-methylethyl]-3-(4-nitroimidazol-1-yl)propylamine]  70 µM
15. CCc1ccc(C(C)NCCCn2ccnc2)cc1 (stereo not drawn) [Example 21, N-[1-(4-Ethylphenyl)ethyl]-3-(imidazol-1-yl)propylamine hemioxalate]  65 µM
16. CC(c1ccc(Cl)cc1)N(C)CCCn1ccnc1 (stereo not drawn) [Example 90, N-[1-(4-chlorophenyl)ethyl]-3-(imidazol-1-yl)-N-methylpropylamine]  62 µM
17. Cc1nccn1CCCN(C)Cc1ccc(Cl)cc1 [Example 97, N-(4-chlorobenzyl)-N-methyl-3-(2-methylimidazol-1-yl)propylamine]  60 µM
18. CC(NCCCn1ccnc1)c1ccc(Cl)c(Cl)c1 (stereo not drawn) [Example 3, N-[1-(3,4-Dichlorophenyl)ethyl]-3-(imidazol-1-yl)propylamine]  60 µM
19. CCC(CC)(NCCCn1cnc(COC(C)=O)c1)c1ccccc1 [Example 103, 1-[3-(α,α-diethylbenzylamino)propyl]imidazol-4-ylmethyl acetate]  51 µM
20. CCOc1cc(Cl)ccc1C(C)NCCCn1ccnc1 (stereo not drawn) [Example 18, N-[1-(4-Chloro-2-ethoxyphenyl)ethyl]-3-(imidazol-1-yl)propylamine]  50 µM
21. Cc1cc(C(C)NCCCn2ccnc2)ccc1Cl (stereo not drawn) [Example 12, N-[1-(4-Chloro-3-methylphenyl)ethyl]-3-(imidazol-1-yl)propylamine]  36 µM
22. CC(C)(NCCCn1ccnc1)c1ccc2ccccc2c1 [Example 83, N-[1-(2-Naphthyl)-1-methylethyl]-3-(imidazol-1-yl)propylamine dihydrochloride hemihydrate]  28 µM
23. CC(NCCCn1ccnc1)c1ccc(OC(F)(F)F)cc1 (stereo not drawn) [Example 23, 3-(Imidazol-1-yl)-N-[1-(4-trifluoromethoxyphenyl)ethyl]propylamine sesquicitrate]  22 µM
24. CCCOC(=O)c1ccc(CNCCCn2ccnc2C)cc1 [Example 94, propyl 4-[3-(2-methylimidazol-1-yl)propylaminomethyl]benzoate]  20 µM
25. Cc1cn(CCCNCc2ccc(Cl)cc2)c(-c2ccccc2)n1 [Example 48, N-(4-chlorobenzyl)-3-(4-methyl-2-phenylimidazol-1-yl)propylamine]  15 µM
26. CC(C)(NCCCn1ccnc1)c1ccc(-c2ccccc2)cc1 [Example 81, N-[1-(4-Biphenylyl)-1-methylethyl]-3-(imidazol-1-yl)propylamine dihydrochloride]  14 µM
27. CC(C)(NCCCn1ccnc1)c1ccc(OCc2ccccc2)cc1 [Example 87, N-[1-(4-Benzyloxyphenyl)-1-methylethyl]-3-(imidazol-1-yl)propylaminedihydrochloride]  12 µM
28. Cc1cn(CCCNCc2ccc(Cl)cc2)c(C)n1 [Example 42, N-(4-chlorobenzyl)-3-(2,4-dimethylimidazol-1-yl)propylamine dihydrochloride]  8 µM
29. CC(C)(NCCCCCCCCn1ccnc1)c1ccc(Cl)cc1 [Example 63, N-[1-(4-chlorophenyl)-1-methylethyl]-8-(imidazol-1-yl)octylamine]  7 µM
30. Cc1nccn1CCCCCNCc1ccc(Cl)cc1 [Example 95, N-(4-chlorobenzyl)-5-(2-methylimidazol-1-yl)pentylamine]  4 µM

same assay, conditions: inhibition of arachidonic acid release; six concentrations (100, 50, 20, 10, 5 and 1 μM); 5 h with zymosan; citrate; read-out: Test A IC50

For `CC(C)(NCCCn1ccnc1)c1ccc(Cl)cc1` [Example 99, N-[1-(4-chlorophenyl)-1-methylethyl]-3-(imidazol-1-yl)propylamine citrate], the IC50 was 14 µM.

same assay, conditions: inhibition of arachidonic acid release; six concentrations (100, 50, 20, 10, 5 and 1 μM); 5 h with zymosan; dihydrate; read-out: Test A IC50

Compound `CC(C)(NCCCn1ccnc1)c1ccc(Cl)cc1` [Example 100, N-[1-(4-chlorophenyl)-1-methylethyl]-3-(imidazol-1-yl)propylamine (+)tartrate dihydrate] has an IC50 of 20 µM.

same assay, conditions: inhibition of arachidonic acid release; six concentrations (100, 50, 20, 10, 5 and 1 μM); 5 h with zymosan; read-out: Test A IC50

For “A mixture of N-[1-(4-chlorophenyl)-1-methylethyl]-3-(4-methylimidazol-1-yl)propylamine and N-[1-(4-chlorophenyl)-1-methylethyl]-3-(5-methylimidazol-1-yl)propylamine [Example 69]”, the IC50 was 11 µM.
